Assay results taken from PubChem BioAssay AID977628 (Broad Institute, 2014).
Results filed as inconclusive are left out. Calls of active or inactive are those of the source.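 How the source made its calls: active means compound lowering the normal-ribosome reporter at least twice as much as the humanized-ribosome reporter, growth loss under a set limit; inconclusive means no clear call, values can overlap the other calls; inactive means the rest.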

Legend:
[1] = system: E. coli mixed WT/h24 culture total growth, OD600, 24 h; assay: growth of wild-type and h24-humanized E. coli strains – h24 mutant RFP vs wild-type GFP, cherry-pick, dose response (AID 977628)
[2] = system: E. coli WT GFP strain growth, fluorescence, 24 h; assay: as above

Row | Structure (SMILES) | AC50 [1] [µM] | AC50 [2]
1 | CC(C)Cn1c(=O)c2ccccc2c2ccccc2c1=O | > 100 | > 100 µM (inactive)
2 | CC(=O)c1c(C)nn(CC(O)COc2ccc3c(c2)CCC3)c1C (stereo not given) | 50.1 | > 100 µM (inactive)
3 | COc1ccc(C(=O)Cn2nnc(-c3ccccc3F)n2)cc1 | 48.8 | > 100 µM (inactive)
4 | CN(CCOc1ccccc1)C(=O)c1ccc(OC2CCN(C(=O)C3CC3)CC2)cc1 | > 100 | > 100 µM (inactive)
5 | Cc1nn(-c2ccccc2)c(C)c1NC(=O)COc1ccc2ccccc2c1 | 42.8 | > 100 µM (inactive)
6 | CC(C)(C)C1CCC(OCC(O)CN2CCN(c3ccccn3)CC2)CC1 (stereo not given) | 41 | > 100 µM (inactive)
7 | COc1cc2c(cc1OC)CN(c1ccc([N+](=O)[O-])c(C(F)(F)F)c1)CC2 | > 100 | > 100 µM (inactive)
8 | O=C(CCc1ccccc1)Nc1sc2c(c1C(=O)O)CCCC2 | 52.3 | > 100 µM (inactive)
9 | O=C(CC(=O)c1cccs1)c1ccncc1 | > 100 | > 100 µM (inactive)
10 | O=C(NCc1nnnn1-c1ccc(Cl)cc1)c1ccc([N+](=O)[O-])o1 | > 100 | > 100 µM (inactive)
11 | COc1ccc(NC(=O)CCS(=O)(=O)c2ccccc2Cl)cc1S(=O)(=O)Nc1ccc(Cl)cc1 | > 100 | > 100 µM (inactive)
12 | Cc1cc(NC(=O)CSc2nccn2-c2cccc(C)c2C)no1 | > 100 | > 100 µM (inactive)
13 | O=c1c2ccccc2cnn1Cc1n[nH]c(=S)n1C1CC2CCC1C2 (stereo not given) | > 100 | > 100 µM (inactive)
14 | O=C(Nc1cccc(Cl)c1)N1C[C@@H]2[C@H](c3ccccc31)[C@H](CO)N2Cc1ccncc1 | > 100 | > 100 µM (inactive)
15 | CCOc1ccc(OCCn2c(=S)[nH]c3c(N)ncnc32)cc1 | 47.8 | > 100 µM (inactive)
16 | Cc1ccc(NC(=O)CN(C)S(=O)(=O)c2cccc3cccnc23)cc1F | > 100 | > 100 µM (inactive)
17 | Cc1cc(C(=O)COC(=O)c2ccc(Br)o2)c(C)n1C | 42.5 | > 100 µM (inactive)
18 | Cc1cc(NC(=O)CS(=O)(=O)c2cn(Cc3cccc(Br)c3)c3ccccc23)no1 | 40 | > 100 µM (inactive)
19 | Cc1cc(OCC(=O)N(Cc2ccco2)C2CCS(=O)(=O)C2)ccc1Cl (stereo not given) | > 100 | > 100 µM (inactive)
20 | COc1ccc(C(=O)Nc2ccc3oc(Cc4ccc(Cl)cc4)nc3c2)cc1OC | > 100 | > 100 µM (inactive)
21 | NC(=O)C1CCN(c2cc(Cl)ccc2[N+](=O)[O-])CC1 | > 100 | > 100 µM (inactive)
22 | Cc1onc(-c2ccccc2)c1-c1nnc(-c2ccccc2C(F)(F)F)o1 | > 100 | > 100 µM (inactive)
23 | COc1ccc(S(=O)(=O)Cc2ccc(C(=O)N3CCN(c4cc(Cl)ccc4C)CC3)o2)cc1 | 49.9 | > 100 µM (inactive)
24 | Cc1nc([N+](=O)[O-])c(Br)n1CC(=O)c1ccc(F)cc1 | > 100 | > 100 µM (inactive)
25 | COc1cccc(OCCNS(=O)(=O)c2ccccc2[N+](=O)[O-])c1 | > 100 | > 100 µM (inactive)
26 | COc1ccc(NC(=O)CCC(=O)c2cccs2)cc1S(=O)(=O)Nc1ccc(Cl)cc1 | > 100 | > 100 µM (inactive)
27 | CC1(C(=O)NS(=O)(=O)c2cccc(Cl)c2)CCN1C(=O)C1(c2ccc(Cl)cc2)CCC1 (stereo not given) | > 100 | > 100 µM (inactive)
28 | O=C(CN(c1ccc(F)cc1)S(=O)(=O)c1ccccc1)Nc1ccccc1C(=O)O | > 100 | > 100 µM (inactive)

Row | Structure (SMILES) | AC50 [1] [µM] | AC50 [2]
29 | CCCNC(=O)c1cc(C2CCCN(S(=O)(=O)c3cccc4cccnc34)C2)on1 (stereo not given) | > 100 | > 100 µM (inactive)
30 | COc1ccc(OCC(=O)N2c3ccccc3CC2C)c([N+](=O)[O-])c1 (stereo not given) | > 100 | > 100 µM (inactive)
31 | Cc1ccccc1S(=O)(=O)N1C[C@H]2CON(C)[C@H]2C[C@H]1c1cccc(-c2ccc(C#N)cc2)c1 | > 100 | > 100 µM (inactive)
32 | CCOc1cccc2sc(NC(=O)CC)nc12 | > 100 | > 100 µM (inactive)
33 | CCOC(=O)C(CC)Sc1cc(C)nc2ccc(OC)cc12 (stereo not given) | > 100 | > 100 µM (inactive)
34 | Cn1c(SCC(=O)Nc2ccccc2-c2ccccc2)nnc1-c1ccco1 | > 100 | > 100 µM (inactive)
35 | Cn1cnc(CCNC(=O)C[C@H]2CC[C@@H]3[C@H](COC[C@H](O)CN3C(=O)Nc3ccc(Cl)cc3)O2)c1 | > 100 | > 100 µM (inactive)
36 | Cc1ccc(NC(=O)CCCSc2ccccc2)cc1S(=O)(=O)N1CCOCC1 | > 100 | > 100 µM (inactive)
37 | O=C(Nc1ccc2c(c1)OCO2)c1cccc(S(=O)(=O)N2CCCC2)c1 | > 100 | > 100 µM (inactive)
38 | C=CCn1c(CCSCc2ccc(OC)c(C)c2)n[nH]c1=S | 51.2 | > 100 µM (inactive)
39 | Clc1cccc(OCc2nc(-c3ccncc3)n[nH]2)c1 | > 100 | > 100 µM (inactive)
40 | O=C(COC(=O)C12CC3CC(CC(O)(C3)C1)C2)NCCc1ccc(Cl)cc1 | > 100 | > 100 µM (inactive)
41 | Cc1cc(CNC(=O)COc2ccc(C)c(C)c2)c2ccccc2n1 | 39 | > 100 µM (inactive)
42 | CCOC(=O)c1[nH]c2ccccc2c1NC(=O)c1ccc(Br)o1 | 41.7 | > 100 µM (inactive)
43 | CCN(CC(=O)Nc1ccccc1OC)CC(=O)Nc1c(Cl)ccc(C)c1Cl | > 100 | > 100 µM (inactive)
44 | CCOc1ccccc1/C=C/c1cc(C(=O)O)c2ccccc2n1 | 37.6 | > 100 µM (inactive)
45 | C=CCn1c(-c2sc(-c3ccccc3)nc2C)n[nH]c1=S | > 100 | > 100 µM (inactive)
46 | Cc1cccc(C)c1-n1nnnc1C1(C)CCC(=O)N1Cc1cccs1 (stereo not given) | > 100 | > 100 µM (inactive)
47 | O=C(COc1ccc(Cl)cc1)Nc1ncc([N+](=O)[O-])s1 | 40.2 | > 100 µM (inactive)
48 | Cc1cc(C(N)=O)nn1-c1c(Cl)cc(Cl)cc1Cl | > 100 | > 100 µM (inactive)
49 | CN(C)CCCN(C(=O)c1ccc(S(=O)(=O)N(C)Cc2ccccc2)cc1)c1nc2c(F)cccc2s1 | 39.3 | > 100 µM (inactive)
50 | COC(=O)c1ccc(CSc2nc(-c3ccccc3)cs2)o1 | 27.1 | > 100 µM (inactive)
51 | Fc1ccc(-n2cc(CNCCc3cccnc3)c(-c3ccccc3Cl)n2)cc1 | 49.2 | > 100 µM (inactive)
52 | CC1CCN(c2ccc3nnc(CCC(=O)Nc4cccc(F)c4)n3n2)CC1 | > 100 | > 100 µM (inactive)
53 | O=S(=O)(Nc1ccc(-c2nc3cccnc3s2)cc1)c1cc(F)ccc1F | > 100 | > 100 µM (inactive)
54 | Cc1ccc(CNC(=O)c2ccc(Br)o2)cc1 | > 100 | > 100 µM (inactive)
55 | CCOc1ccc(NC(=O)CCc2nnc3ccc(N4CCC(C)CC4)nn23)cc1 | > 100 | > 100 µM (inactive)
